The supplement of paper PMC10307832

Legend:
Test in all cases: relative viability (nuclei count vs DMSO), 5 days (fraction); higher = more cells survive
[1] = compound: OCc1c[nH]c2ccccc12 [Indole-3-carbinol] + N=C(N)NC(=N)NCCc1ccccc1 [Phenformin] (partner 250 µM)
Summary of the method: (§1)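 Relative viability is defined as nuclei in treated wells over nuclei in vehicle wells. Duplicate plates were run and medians reported. Lung cancer cell lines in 1536-well plates were dosed by pin tool one day after seeding, with one drug or with a fixed anchor-drug dose plus five library-drug doses (not always all listed) in √10 steps, and nuclei were counted after 5 days.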

[2] = compound: OCc1c[nH]c2ccccc12 [Indole-3-carbinol] + C[C@@H](Oc1cc(-c2cnn(C3CCNCC3)c2)cnc1N)c1c(Cl)ccc(F)c1Cl [Crizotinib] (partner 1 µM)
Summary of the method: as §1

[3] = compound: OCc1c[nH]c2ccccc12 [Indole-3-carbinol] + Cc1nc(NC(=O)N2CCC[C@H]2C(N)=O)sc1-c1ccnc(C(C)(C)C(F)(F)F)c1 [Alpelisib] (partner 2 µM)
Summary of the method: as §1

[4] = compound: OCc1c[nH]c2ccccc12 [Indole-3-carbinol] + COc1cccc2cc(-c3nc([C@H]4CC[C@H](C(=O)O)CC4)n4ncnc(N)c34)[nH]c12 [OSI-027] (partner 0.5 µM)
Summary of the method: as §1

[5] = compound: OCc1c[nH]c2ccccc12 [Indole-3-carbinol] + COc1cc2c(Oc3ccc(NC(=O)C4(C(=O)Nc5ccc(F)cc5)CC4)cc3F)ccnc2cc1OCCCN1CCOCC1 [Foretinib] (partner 0.25 µM)
Summary of the method: as §1

Cell Line	relative viability ([1]; first compound 0.253 µM)	relative viability ([1]; first compound 0.8 µM)	relative viability ([1]; first compound 2.53 µM)	relative viability ([1]; first compound 8 µM)	relative viability ([2]; first compound 0.253 µM)	relative viability ([2]; first compound 0.8 µM)	relative viability ([2]; first compound 2.53 µM)	relative viability ([2]; first compound 8 µM)	relative viability ([3]; first compound 0.253 µM)	relative viability ([3]; first compound 0.8 µM)	relative viability ([3]; first compound 2.53 µM)	relative viability ([3]; first compound 8 µM)	relative viability ([4]; first compound 0.253 µM)	relative viability ([4]; first compound 0.8 µM)	relative viability ([4]; first compound 2.53 µM)	relative viability ([4]; first compound 8 µM)	relative viability ([5]; first compound 0.253 µM)	relative viability ([5]; first compound 0.8 µM)	relative viability ([5]; first compound 2.53 µM)	relative viability ([5]; first compound 8 µM)
201T	0.42	0.478	0.505	0.446	1.03	1.02	1.07	1.01	0.954	1.04	1.06	1.06	0.895	0.765	0.748	0.718	1.1	1.07	1.04	1.01
A549	0.18	0.226	0.254	0.156	0.712	0.914	0.819	0.765	0.876	0.842	0.832	0.66	–	–	–	–	0.968	1.04	0.911	0.965
A-427	0.35	0.351	0.339	0.298	0.888	0.847	1.18	0.828	1.01	1.14	1.05	0.953	0.372	0.444	0.566	0.537	0.941	1.14	1.01	0.94
ABC-1	0.254	0.238	0.265	0.259	0.973	0.925	1.39	1.33	0.923	1.2	1.01	0.923	0.381	0.511	0.565	0.565	0.903	0.961	1.13	1
BEN	0.269	0.262	0.265	0.253	0.857	0.722	0.917	0.743	0.948	0.808	1.02	0.929	0.275	0.271	0.33	0.331	0.566	0.501	0.651	0.624
CAL-12T	0.584	0.553	0.58	0.559	0.657	0.866	0.718	0.639	1.04	1.61	1.47	1.17	0.709	0.775	0.62	0.623	1.13	1.17	1.01	1.09
COR-L23	0.413	0.456	0.41	0.403	0.751	0.724	0.748	0.485	0.818	1.06	0.673	0.601	0.66	0.718	0.854	0.628	0.992	0.977	1.1	0.951
COR-L 105	0.497	0.408	0.488	0.416	0.93	0.681	0.781	0.731	1.07	1.21	0.925	0.979	0.751	0.586	0.73	0.785	1.22	0.838	0.963	1.03
ChaGo-K-1	0.479	0.475	0.551	0.443	1.21	1.04	1.18	1.1	–	–	–	–	0.56	0.543	0.605	0.567	0.955	0.941	0.872	0.894
EKVX	0.232	0.223	0.227	0.234	1.09	1.24	0.648	0.864	0.763	0.973	0.9	0.852	0.719	0.74	0.731	0.633	0.859	0.97	0.844	0.829
EMC-BAC-2	0.528	0.536	0.489	0.413	0.72	0.785	0.794	0.666	0.715	0.731	0.741	0.665	0.32	0.356	0.386	0.359	1.02	1.01	0.917	0.923
EPLC-272H	0.347	0.292	0.285	0.258	0.997	1.14	0.947	1.01	1.13	0.94	0.931	0.803	0.252	0.299	0.333	0.218	0.67	0.72	0.724	0.709
H3255	0.397	0.385	0.414	0.343	0.865	0.817	0.968	0.759	0.671	0.741	0.675	0.643	0.518	0.625	0.543	0.545	0.985	0.669	1.09	0.917
HARA	0.484	0.479	0.554	0.435	1.11	1.23	1.06	0.987	0.759	0.808	0.93	0.773	0.572	0.436	0.597	0.556	0.777	0.932	1.09	0.809
HCC-15	0.54	0.556	0.472	0.468	0.79	0.879	0.852	0.763	0.824	0.986	0.987	0.848	0.681	0.79	0.676	0.701	1.04	1.14	1.07	1.01
HCC-44	0.168	0.198	0.187	0.295	0.891	0.946	0.913	0.782	0.788	0.845	0.851	0.773	0.488	0.412	0.484	0.525	–	–	–	–
HCC-78	0.654	0.626	0.667	0.845	0.307	0.328	0.369	0.342	0.346	0.309	0.269	0.334	0.363	0.359	0.39	0.346	0.558	0.526	0.592	0.523
HCC-366	0.645	0.61	0.696	0.565	0.606	0.497	0.732	0.561	0.505	0.264	0.48	0.381	0.954	0.777	0.898	0.881	0.959	0.861	0.902	0.926

Cell Line	relative viability ([1]; first compound 0.253 µM)	relative viability ([1]; first compound 0.8 µM)	relative viability ([1]; first compound 2.53 µM)	relative viability ([1]; first compound 8 µM)	relative viability ([2]; first compound 0.253 µM)	relative viability ([2]; first compound 0.8 µM)	relative viability ([2]; first compound 2.53 µM)	relative viability ([2]; first compound 8 µM)	relative viability ([3]; first compound 0.253 µM)	relative viability ([3]; first compound 0.8 µM)	relative viability ([3]; first compound 2.53 µM)	relative viability ([3]; first compound 8 µM)	relative viability ([4]; first compound 0.253 µM)	relative viability ([4]; first compound 0.8 µM)	relative viability ([4]; first compound 2.53 µM)	relative viability ([4]; first compound 8 µM)	relative viability ([5]; first compound 0.253 µM)	relative viability ([5]; first compound 0.8 µM)	relative viability ([5]; first compound 2.53 µM)	relative viability ([5]; first compound 8 µM)
HCC-827	0.389	0.383	0.417	0.364	0.9	1.03	0.945	0.892	0.911	1	0.99	0.985	0.751	0.659	0.723	0.808	1.07	1.02	1.03	1.1
HOP-62	0.724	0.654	0.671	0.628	0.621	0.912	0.889	0.924	1.01	0.795	0.867	0.929	0.802	0.796	0.791	0.789	1.12	1.23	1.16	1.05
LC-2-ad	0.597	0.525	0.638	0.588	0.514	0.439	0.484	0.42	0.91	0.874	0.945	0.856	0.888	0.776	0.826	0.787	0.921	0.852	1.05	0.889
LCLC-97TM1	0.477	0.435	0.425	0.443	0.368	0.534	0.389	0.442	0.203	0.277	0.242	0.227	0.381	0.527	0.386	0.668	0.982	0.973	1.03	0.983
LCLC-103H	0.317	0.339	0.371	0.337	1.13	1.12	1.01	0.977	0.869	0.882	0.923	0.899	0.452	0.513	0.428	0.431	0.691	0.783	0.669	0.639
LK-2	0.245	0.381	0.606	0.563	0.239	0.218	0.198	0.229	1.11	1.02	1.25	1.05	0.198	0.145	0.189	0.215	1.39	1.2	1.42	1.07
LOU-NH91	0.783	0.708	0.725	0.699	0.771	0.61	0.71	0.714	0.746	0.706	0.703	0.728	0.747	0.671	0.722	0.689	0.927	0.964	0.963	0.924
LU99A	0.943	0.869	0.816	0.871	0.569	0.568	0.532	0.506	0.508	0.548	0.582	0.451	0.307	0.355	0.291	0.284	0.828	0.87	0.769	0.777
LXF-289	0.527	0.553	0.488	0.513	0.863	0.933	0.824	0.729	1.03	1.1	1.09	0.99	0.838	0.855	0.783	0.754	0.973	0.978	0.968	0.945
NCI-H23	0.773	0.815	0.831	0.77	0.679	0.497	0.55	0.509	0.618	0.723	0.637	0.629	0.589	0.732	0.566	0.55	1.03	1.01	1.04	1.02
NCI-H522	0.621	0.661	0.724	0.671	–	–	–	–	–	–	–	–	0.646	0.821	0.685	0.836	–	–	–	–
NCI-H1395	0.434	0.405	0.432	0.457	–	–	–	–	1.31	0.984	0.983	1.02	0.738	0.606	0.637	0.613	0.818	1.1	0.97	0.914
NCI-H1650	0.42	–	0.462	0.356	0.907	1.02	1.16	0.968	–	–	–	–	0.597	–	0.601	0.647	0.987	–	1.08	1.3
NCI-H1703	–	–	–	–	0.835	0.853	0.991	0.661	0.3	0.4	0.322	0.332	–	–	–	–	0.342	0.376	0.309	0.326
NCI-H1792	0.191	0.26	–	0.194	0.95	1.01	0.95	0.984	0.713	0.68	0.77	0.673	0.733	0.695	0.726	0.692	–	–	–	–
NCI-H1793	0.438	0.409	0.499	0.339	–	–	–	–	0.779	0.768	0.649	0.754	0.233	0.251	0.268	0.31	0.728	0.78	0.685	0.656
NCI-H2342	0.617	0.608	0.572	0.516	–	–	–	–	–	–	–	–	0.605	0.585	0.569	0.572	1.12	1.04	1.06	0.999
